Test [1] concerns CD4+CFSElo cells. As to the kind of experiment: T cell receptor V alpha gene sequencing of CD4+CFSElo cells after proliferation to peptide. In kind it is cell-based, human. Particulars: three HLA matched T1D subjects with two non-β57Asp DQ alleles; CD4+CFSElo cells vs baseline. The method, then:
Three individuals had TCR α-chain sequencing performed on sorted CD4 T cells before peptide proliferation and then on CD4+CFSElo cells after one week of proliferation. Total RNA was directly extracted from sorted cells using the RNeasy Mini kit (Qiagen) for cells before proliferation and the PicoPure RNA isolation kit (Life Technologies) for those after proliferation. […] To amplify TCR-α and TCR-β chains, a two-step PCR was performed. PCR reactions were generated for α- and β-chains separately using the Universal Primer A Mix supplied from the SMARTer RACE cDNA Amplification Kit along with a primer designed on the constant region of α-[…] NO:22)) and β-chains […] NO:23)), respectively. The first PCR products were further amplified with nested primers ligated with the 454 adaptor sequences containing a multiple identifier sequence: forward primer for both α- and β-chains ([NT] NO:24)), reverse primer for α-chains […] NO:25)-multiple identifier sequence-[…] NO:26), and reverse primer for β-chains […] […] All sequences obtained from 454 sequencing were analyzed by the […]-QUEST algorithm (45) to identify Vgene, Jgene, and junction sequences, followed by additional analysis by in-house software to determine frequencies of Vgene usages by individual TCR sequences. Vgene frequencies determined by mean values from the 12 PCR reactions were analyzed for individual samples. […]

Test [2] deals with B:9-23 specific CD4 T cells. Particulars: presented by IAg7; cited from earlier work.

Take “SHLVEALYLVCGEEG [B: 9-23 B22E, B:9-23 mimotope; B22 arginine to glutamic acid]”: the “TCR V gene usage of alpha chains before and after proliferation” value in test [1] was “skewing with several V alpha genes and one V delta gene”. The “stimulates B:9-23 specific CD4 T cells better than the wild type peptide” value in test [2] was “about 100 fold”.
